Results taken from patent US11865109B2 (NOVARTIS AG, priority 2019, dated 2024).

Experiments:
Format in all cases: in vivo, human
[1] = ADME study: excretion/mass balance of radioactivity in urine and feces
Protocol: (§1) Six healthy male subjects of aged 18 to 55 years (inclusive) were included in this study.
(§2) All treatment administrations (Day 1 to Day 12) occurred approximately 30 minutes following consumption of a standardized meal. Treatments were administered with ˜240 mL water as 4×100 mg hard gelatin capsules. The radioactive release criteria was met and all the subjects were released from the study site on Day 14 afternoon.
(§3) The PK blood sample collection schedule was appropriate to characterize the PK of Compound 1 and any circulating major metabolites. The urine and feces collection schedule was set up adequately to ensure complete excretion of radioactivity. Due to the non-linear PK of Compound 1, the study was conducted at steady state.
[14C]-radioactivity data, which was based on LSC analyses, for excreta was used to calculate percentage of dose excreted via urine or feces as well as a total percent of dose recovered.
(§4) Profiles of radioactive metabolites in urine and feces pools representing more than 90% of total radioactivity in the collected excreta of individual subjects were specified as dose proportion (%) per metabolite.

[2] = ADME study: PK of total radioactivity in blood and plasma (LSC); design: AUC (last), blood radioactivity / AUC (last), plasma radioactivity / AUC (inf), blood radioactivity: concentration or dose not given beside the values
Protocol: as §1
The study consisted of a 28-day screening period (including baseline period of 1 day) and 12 days of treatment period. The study design is depicted in FIG. 10.
as §2, §3
(§5) Subjects who met the eligibility criteria were admitted to the study site approximately 24 hours prior to dosing for baseline evaluations. […] Safety assessments included physical examinations, electrocardiograms (ECGs), vital signs, standard clinical laboratory evaluations (hematology, blood chemistry, and urinalysis), AE and serious adverse event (SAE) monitoring.
Blood, plasma, urine, and feces samples were obtained and evaluated in all subjects. […] If the co-efficient of variation of replicate radioactivity measurements was >20%, the sample was re-homogenized and/or reanalyzed.
Single-dose blood and plasma PK parameters (Cmax, Tmax, AUClast and AUCinf), for total radioactivity were derived from plasma and blood concentration versus sampling time data. PK parameters were determined using non-compartmental method(s) with Phoenix WinNonLin (Version 6.4) for total radioactivity.

[3] = ADME study: plasma PK of Compound 1 at steady state (LC-MS/MS)
Protocol: as §1
All treatment administrations (Day 1 to Day 12) occurred approximately 30 minutes following consumption of a standardized meal. Treatments were administered with ˜240 mL water as 4×100 mg hard gelatin capsules.
(§6) Pharmacokinetic samples were obtained and evaluated in all subjects.
The PK parameters were based on the actual recorded sampling times and non-compartmental method(s) with Phoenix WinNonLin (Version 6.4). The terminal rate constant (λz) was determined from automated (WinNonlin algorithm) linear regression of at least the last three points with non-zero concentrations in the terminal phase of the log-transformed concentration-time profile.

[4] = Relative bioavailability and food effect study, single oral dose of 450 mg, plasma PK of Compound 1
From the text: as §6

[5] = ADME study: metabolite pattern analysis in plasma
Protocol: as §1, §2, §4
Pharmacokinetic samples were obtained and evaluated in all subjects. Compound 1 was determined in plasma by a validated liquid chromatography with tandem mass spectrometry (LC-MS/MS) method using electrospray ionization. A non-validated method was used to analyze metabolites of Compound 1.

[6] = ADME study: safety and tolerability; conditions: multiple-dose oral 400 mg Compound 1 and single oral 400 mg [14C]Compound 1, healthy subjects
Protocol: as §1, §2, §5

[7] = single oral 400 mg [14C]Compound 1 at steady state
[8] = male, human, oral, 400 mg, Day 5, 0-12 hours, steady state, mean of N = 6
[9] = time period 0-216 h, mean, radioactivity after [14C]Compound 1
[10] = plasma time pools of N = 6 subjects, metabolite pattern analysis
[11] = blood, total radioactivity, mean of N = 6

COc1nc(C(=O)NC[C@](C)(O)C(F)(F)F)c(N)cc1C(F)(F)F [[14C]Compound 1]
Radioactivity in samples collected after 96 hours post-dose ([1]; after 96 hours post-dose of [14C]Compound 1): less than 3 % of the dose
Excretion of radioactivity, mean ([1]; after 9 days, range 93.4%-99.1%): 97.6%
Extent of oral absorption ([1]; oral 400 mg [14C]Compound 1 at steady state, N=6, range 89.7%-97.40%): 93.4%
Renal excretion of radioactivity (mainly in the form of metabolites) [1, 7]: 92.3±4.2 % of the dose
Radioactive dose recovered in feces and urine ([1]; within 96 hours): > 95 % of dose
Time post-dose up to which radioactivity was detected in blood [2, 7]: up to 48 hours
Time post-dose up to which radioactivity was detected in plasma [2, 7]: ≤ 96 h

COc1nc(C(=O)NC[C@](C)(O)C(F)(F)F)c(N)cc1C(F)(F)F [Compound 1, (S)-3-amino-6-methoxy-N-(3,3,3-trifluoro-2-hydroxy-2-methylpropyl)-5-(trifluoromethyl)picolinamide]
Tlast (range), plasma Compound 1 ([3]; Day 5, 0-12 hours): 12 h
AUC (% of 14C-AUCinf plasma), plasma Compound 1 ([3]; Day 5, 0-12 hours, mean of N = 6): 16.6 % of 14C-AUCinf plasma
CL/F ([3]; male, human, oral, 400 mg b.i.d., steady state, CV % 45.1%, read-out: Steady state plasma clearance (CLss/F), mean (converted)): 947 mL/min
Vd/F ([3]; male, human, oral, 400 mg b.i.d., steady state, CV % 48.1%, read-out: Apparent volume of distribution (Vz/F), mean): 335 L
Tmax ([3]; male, human, oral, 400 mg b.i.d., steady state, Day 5, range 1.0 hour-4.0 hours): 4 h
AUC(0-t) [3, 8]: 8170 ng·h/mL
Cmax [3, 8]: 1680 ng/mL
14C-Excretion, Feces [1, 9]: 5.2 % of dose
14C-Excretion, Urine [1, 9]: 92.3 % of dose
14C-Excretion, Total ([1]; time period 0-216 h, urine plus feces, mean, radioactivity after [14C]Compound 1): 97.6 % of dose
Compound 1 detected in urine ([1]; within 0-96 hours): 3.35 % of the dose
half-life ([4]; both sexes, human, plasma, single oral 450 mg, all fasted treatments): ~16 h
Food effect ([4]; single 450 mg dose, high-fat meal vs fasted): positive food effect
AUC(0-inf) ([5]; male, human, oral, 400 mg, plasma time pools of N = 6 subjects, AUCinf = AUClast + AUCt-inf): 22.7 µM·h
AUC(0-t) ([5]; male, human, oral, 400 mg, plasma time pools of N = 6 subjects, metabolite pattern analysis, linear trapezoidal method, read-out: AUC0-48 h in plasma): 22.1 µM·h
half-life ([5]; male, human, oral, 400 mg, plasma time pools of N = 6 subjects, metabolite pattern analysis, read-out: T½ in plasma (converted)): 11.2 h
Proportion of the plasma 14C-AUC0-48 h ([5]; metabolite pattern analysis, oral 400 mg [14C]Compound 1 at steady state): 18.5%
Extent of metabolism ([5]; oral 400 mg [14C]Compound 1 at steady state, humans): extensively metabolized
AUC0-48 h, percent of total radiolabeled components AUC0-48 h [5, 10]: 18.5%
AUCinf, percent of total radiolabeled components AUCinf [5, 10]: 17.5%
AUC (inf), blood radioactivity ([2]; blood, total radioactivity, AUCinf = AUClast + AUCt-inf, mean of N = 6): 27900 ng-eq·h/mL
Tlast (range), blood radioactivity ([2]; blood, total radioactivity, N = 6): 24 to 48 h
AUC (last), blood radioactivity ([2]; blood, total radioactivity, linear trapezoidal rule, mean of N = 6): 24700 ng-eq·h/mL
AUC % Extrap, blood radioactivity [2, 11]: 12.2 % of AUCinf
AUC (% of 14C-AUCinf plasma), blood radioactivity [2, 11]: 57.9 % of 14C-AUCinf plasma
Cmax, blood radioactivity ([2]; blood, total radioactivity, oral 400 mg [14C]Compound 1, mean of N = 6): 2670 ng-eq/mL
Tlast (range), plasma radioactivity ([2]; plasma, total radioactivity, N = 6): 48 to 96 h
AUC (last), plasma radioactivity ([2]; plasma, total radioactivity, linear trapezoidal rule, mean of N = 6): 45600 ng-eq·h/mL
AUC % Extrap, plasma radioactivity ([2]; plasma, total radioactivity, mean of N = 6): 5.74 % of AUCinf
Cmax, plasma radioactivity ([2]; plasma, total radioactivity, oral 400 mg [14C]Compound 1, mean of N = 6): 4280 ng-eq/mL
Fraction of total radioactivity in blood confined to the plasma compartment (Fp) [2, 7]: 93.3±3.35%
Safety and tolerability [6]: safe and well tolerated
